“And” between values parts separate entries of the source, which are not always exact repeats. Equal entries are not always repeated.
Legend:
[1] = tested on: HIV-1 NL4-3 site-directed reverse transcriptase mutants; test: phenotypic drug resistance test, site-directed reverse transcriptase mutants in NL4-3 background (POL segment assay); format: cell-based; conditions: G190S and E399D combination mutant
Method: Further, a site directed double mutant T3691/K103N was generated using conventional techniques and tested for resistance to an NNRTI using the methods described above.
To assess the effects of mutations at positions 348, 369, and 399, a series of site-directed mutants were constructed in an wild-type (NL4-3) background. The NNRTI susceptibility phenotypes of these mutants were then determined using the POL segment assay according to Example 2.
In particular, site-directed mutants were constructed in an NL4-3 background comprising N348I, T369I, E399D, or the combination of N3481 and T369I.
Next, a series of site-directed mutants were constructed to assess the effects of combinations of N3481, T369I, and E399D with previously recognized NNRTI resistance mutations. In particular, mutants comprising N348I, T369I, and E399D were made in combination with G190S, with K103N, and with the combination of K103R and V179D. The effects of these combinations on DLV, EFV, and NVP susceptibility were tested using the POL segment assay according to the method describe in Example 2. The results from these experiments are presented as FIG. 10.
To assess the specific effects of mutations at positions 348, 369, and 399, a series of site-directed mutants were constructed in an wild-type (NL4-3) background. The AZT susceptibility phenotype of these mutants were then determined with a POL segment assay according to Example 2.
In particular, site-directed mutants were constructed in an NL4-3 background comprising N348I, T3691, E399D, or the combination of N348I and T3691. The FC in AZT susceptibility for each mutant is shown as FIG. 13.

[2] = tested on: HIV-1 (patient-derived RHIN segment); test: phenotypic drug resistance test, resistance test vectors with patient-derived RHIN segment, luciferase, 293 cells; format: cell-based
From the text: Patient-derived segment(s) corresponding to the entire pol gene, encoding HIV protease, reverse transcriptase (including RNAse H), and integrase (hereinafter “POL”), the portion of pol encoding amino acids 1-305 of reverse transcriptase (hereinafter “PR-RT”), the portion of pol encoding amino acids 319-440 of reverse transcriptase (including RNAse H), and integrase (hereinafter “RHIN”), were amplified by the reverse transcription-polymerase chain reaction method (RT-PCR) using viral RNA isolated from viral particles present in the plasma or serum of HIV-infected individuals as described below. The portion of pol encoding protease, amino acids 1-531 of reverse transcriptase (including RNase H) (hereinafter “PRRT-RH”), or the portion of pol encoding protease, reverse transcriptase (including RNAse H) and integrase (hereinafter “PRRT-RHIN”), were assembled from amplicons described above by standard recombinant DNA techniques involving a KpnI restriction site at amino acid 400 or a Pin A1 site at amino acid 315.
Virus was pelleted by centrifugation at 20,400×g for 60 min from plasma (typically, 1 ml) prepared from blood samples collected in evacuated tubes containing either EDTA, acid-citrate dextrose, or heparin as an anticoagulant. Virus particles were disrupted by resuspending the pellets in 200 [1.1 of lysis buffer (4 M guanidine thiocyanate, 0.1 M Tris HCl (pH 8.0), 0.5% sodium lauryl sarcosine, 1% dithiothreitol). RNA was extracted from viral lysates by using oligo(dT) linked to magnetic beads (Dynal, Oslo, Norway). Reverse transcription was performed with Superscript III (Invitrogen) at 50 degrees for 1 hour using primer 1.
From the resultant cDNA either POL or RHIN sequences were amplified using the Advantage High Fidelity PCR kit (BD Biosciences; Clontech). POL amplification products are made using forward Primer 3 containing an Apal site and reverse Primer 4 containing a Xho 1 site. RHIN amplification products are made using forward Primer 2 containing a P1NA1 site and reverse Primer 4 containing a Xho 1 site.
A retroviral vector designed to measure antiretroviral drug susceptibility was constructed by using an infectious molecular clone of HIV-1. The vector, referred to herein as an indicator gene viral vector (IGVV), is replication defective and contains a luciferase expression cassette inserted within a deleted region of the envelope (env) gene. The IGVV is described in U.S. Pat. No. 5,837,464 (International Publication Number WO 97/27319) which is hereby incorporated by reference in its entirety. This retroviral vector was further modified to allow insertion of either the entire pol gene (POL) or the portion of poi encoding amino acids 319-440 of reverse transcriptase, the RNase H portion of reverse transcriptase, and integrase (REIN) by engineering an Xho l restriction enzyme recognition site into vif. Prior to doing this, an Xho 1 site in nef was deleted. Resistance Test vectors (RTVs) were constructed by incorporating amplified POL or RHIN into the IGVV by using Apal and Xhol or PinAI and Xho 1 restriction sites respectively. RTVs were prepared as libraries (pools) in order to capture and preserve the pol or RHIN sequence heterogeneity of the virus in the patient. POL amplification products were digested with Apal and Xhol, purified by agarose gel electrophoresis, and ligated to ApaI- and Xhol-digested IGVV DNA. RHIN amplification products were digested with PinAI and Xho/, purified by agarose gel electrophoresis, and ligated to PinAI and Xhol-digested IGVV DNA. Ligation reactions were used to transform competent Escherichia coli (Invitrogen, Carlsbad, Calif.). An aliquot of each transformation was plated onto agar, and colony counts were used to estimate the number of patient-derived segments represented in each RTV library. RTV libraries that comprised less than 50 members are not considered representative of the patient virus. […]

With `CC(C)Nc1cccnc1N1CCN(C(=O)c2cc3cc(NS(C)(=O)=O)ccc3[nH]2)CC1` [DLV, delavirdine] the “FC in susceptibility relative to NL4-3, versus G190S mutant” value [1] was “the same FC”, the “fold change in IC50, RHIN” value ([2]; Sample 31 (K103N)) was 1.1 fold and the “fold change in IC50, RHIN” value ([2]; Sample 33 (K103S)) was 0.7 fold. The “fold change in IC50, RHIN” value ([2]; Sample 34) was 0.7 fold, the “fold change in IC50, RHIN” value ([2]; Sample 35 (K103H)) was 0.8 fold and the “fold change in IC50, RHIN” value ([2]; Sample 36 (K103K/W)) was 0.9 fold. The “fold change in IC50, RHIN” value ([2]; Sample 38 (K103N)) was 0.5 fold, the “fold change in IC50, RHIN” value ([2]; Sample 39 (T369A)) was 1.2 fold and the “fold change in IC50, RHIN” value ([2]; Sample 42 (G190G/A)) was 0.5 fold. For the same compound, the “fold change in IC50, RHIN” value ([2]; Sample 45) was 1.0 fold, the “fold change in IC50, RHIN” value ([2]; Sample 47 (K103K/N, V106V/A, Y181Y/C, G190G/A)) was 0.6 fold and the “fold change in IC50, RHIN” value ([2]; Sample 50 (K103N)) was 0.4 fold. The “fold change in IC50, RHIN” value ([2]; Sample 51) was 0.4 fold, the “fold change in IC50, RHIN” value ([2]; Sample 52) was 0.9 fold and the “fold change in IC50, RHIN” value ([2]; Sample 58 (K103N, Y181Y/C, G190G/A)) was 1.5 fold. For the same compound, the “fold change in IC50, RHIN” value ([2]; Sample 62 (K103H, P225P/H, T369T/I)) was 3.4 fold and 3.36 fold, the “fold change in IC50, RHIN” value ([2]; Sample 64 (T369T/A)) was 0.3 fold and the “fold change in IC50, RHIN” value ([2]; Sample 69) was 0.7 fold. For the same compound, the “fold change in IC50, RHIN” value ([2]; Sample 72) was 1.7 fold, the “fold change in IC50, RHIN” value ([2]; Sample 80 (K103K/N, Y181Y/C)) was 0.58 fold and the “fold change in IC50, RHIN” value ([2]; Sample 81 (K103N, P225H)) was 0.9 fold. The “fold change in IC50, RHIN” value ([2]; Sample 84) was 0.4 fold, the “fold change in IC50, RHIN” value ([2]; Sample 85) was 1.4 fold and the “fold change in IC50, RHIN” value ([2]; Sample 87) was 1.3 fold. The “fold change in IC50, RHIN” value ([2]; Sample 89 (L1001, K103N)) was 1.5 fold, the “fold change in IC50, RHIN” value ([2]; Sample 90 (K103K/N, Y181C, G190A)) was 0.6 fold and the “fold change in IC50, RHIN” value ([2]; Sample 92) was 0.3 fold. The “fold change in IC50, RHIN” value ([2]; Sample 93) was 0.7 fold.
